Experimental data taken from ChEMBL document CHEMBL1201862, “PubChem BioAssay data set” (2004).
Calls of active or inactive are those of the source. Unless noted, the rule behind the calls is not given here.

Experiments:
[1] = target: T1, Heat shock factor protein 1 (Mus musculus, UniProt P38532); test: decrease of HSF1-responsive luciferase luminescence – cell-based, NIH3T3, dose retest, confirmation (AID 2382); assay type: functional;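 also: NIH3T3 fibroblasts with HSF1-driven luciferase reporter stressed by proteasome inhibitor MG132; luminescence from HSF1-driven luciferase expression after 8 hours of MG132 stress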
T1 sequence (P38532 whole entry): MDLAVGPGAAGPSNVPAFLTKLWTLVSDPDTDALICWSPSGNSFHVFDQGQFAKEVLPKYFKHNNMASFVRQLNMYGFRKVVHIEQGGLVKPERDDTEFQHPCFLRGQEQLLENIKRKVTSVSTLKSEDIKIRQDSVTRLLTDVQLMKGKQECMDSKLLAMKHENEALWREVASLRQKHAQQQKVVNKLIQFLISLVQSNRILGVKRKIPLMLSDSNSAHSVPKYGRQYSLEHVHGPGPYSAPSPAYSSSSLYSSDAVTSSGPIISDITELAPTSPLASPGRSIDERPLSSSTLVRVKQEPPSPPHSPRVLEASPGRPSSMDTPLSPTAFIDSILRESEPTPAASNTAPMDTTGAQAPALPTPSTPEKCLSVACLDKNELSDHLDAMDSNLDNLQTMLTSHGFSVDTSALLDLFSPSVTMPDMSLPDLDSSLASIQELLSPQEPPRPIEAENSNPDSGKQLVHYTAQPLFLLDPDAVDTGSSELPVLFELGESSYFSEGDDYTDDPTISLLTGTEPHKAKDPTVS

[2] = target: COUP transcription factor 2 (Homo sapiens, UniProt P24468); test: Luminescence-based cell-based high throughput dose response assay to identify inhibitors of COUP-TFII (NR2F2).; assay type: functional;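 also: HEK293 cells transiently cotransfected with COUP-TFII expression vector and reporter; luciferase reporter luminescence driven by COUP-TFII from the pX2-168 reporter plasmid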
[3] = target: T2, Disintegrin and metalloproteinase domain-containing protein 17 (Homo sapiens, UniProt P78536); test: inhibition of ADAM17 substrate cleavage – biochemical, quenched FRET substrate, counter-screen for ADAM10 exosite inhibitor project, dose response (AID 743253)
[4] = target: Glutathione-S-transferase (Schistosoma japonicum, UniProt Q26513); test: GST-antibody interaction or FRET quenching – biochemical, TR-FRET, artefact control for Vif-APOBEC3G degradation inhibitor project, dose response (AID 1117362); assay type: functional
[5] = target: FAD-linked sulfhydryl oxidase ALR (Homo sapiens, UniProt P55789); test: ALR-catalysed DTT oxidation blockers – biochemical, H2O2 detection, luminescence, cherry-pick, dose response (AID 493248)
[6] = target: T3, 14-3-3 protein gamma (Homo sapiens, UniProt P61981); test: modulators of 14-3-3 gamma client binding – dose response (AID 711); assay type: functional
T3 sequence (P61981 whole entry): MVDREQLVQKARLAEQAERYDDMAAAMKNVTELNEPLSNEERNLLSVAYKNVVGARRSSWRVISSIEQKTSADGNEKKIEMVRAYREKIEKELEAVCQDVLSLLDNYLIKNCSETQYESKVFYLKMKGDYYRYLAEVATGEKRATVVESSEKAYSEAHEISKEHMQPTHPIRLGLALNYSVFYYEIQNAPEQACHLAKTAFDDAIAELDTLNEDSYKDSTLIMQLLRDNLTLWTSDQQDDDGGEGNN

[7] = target: T4, Protein skinhead-1 (Caenorhabditis elegans, UniProt P34707); assay type: functional
T4 sequence (P34707 whole entry): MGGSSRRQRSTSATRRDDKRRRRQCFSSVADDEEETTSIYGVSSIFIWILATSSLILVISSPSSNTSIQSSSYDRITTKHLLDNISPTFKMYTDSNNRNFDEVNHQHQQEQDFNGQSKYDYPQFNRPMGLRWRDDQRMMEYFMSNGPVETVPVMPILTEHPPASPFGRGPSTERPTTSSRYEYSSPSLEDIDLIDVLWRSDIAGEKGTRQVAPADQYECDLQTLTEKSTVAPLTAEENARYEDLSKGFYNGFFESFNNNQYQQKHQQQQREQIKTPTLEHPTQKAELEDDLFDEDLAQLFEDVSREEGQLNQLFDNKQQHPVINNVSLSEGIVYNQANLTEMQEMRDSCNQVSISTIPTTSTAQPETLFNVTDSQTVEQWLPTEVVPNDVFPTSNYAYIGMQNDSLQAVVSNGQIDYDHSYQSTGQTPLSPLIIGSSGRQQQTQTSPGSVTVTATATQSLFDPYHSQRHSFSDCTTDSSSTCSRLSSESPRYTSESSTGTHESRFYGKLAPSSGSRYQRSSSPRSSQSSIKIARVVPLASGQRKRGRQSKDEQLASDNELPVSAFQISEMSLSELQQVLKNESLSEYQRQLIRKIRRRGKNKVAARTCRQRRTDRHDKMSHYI

[8] = target: Major prion protein (Homo sapiens, UniProt P04156); assay type: functional, cell-based
[9] = cells
[10] = target: Mu-type opioid receptor (Homo sapiens, UniProt P35372); test: Late-stage results from the probe development effort to identify antagonists of OPRK1: luminescence-based cell-based dose response OPRM1 counterscreen, Set 2.; assay type: functional
[11] = target: Sphingosine 1-phosphate receptor 1 (Homo sapiens, UniProt P21453); test: Late-stage counterscreen for antagonists of kappa opioid receptor 1 (OPRK1): fluorescence-based cell-based dose response assay to identify antagonists of Sphingosine 1-Phosphate Receptor 1 (S1P1).; assay type: functional
[12] = target: Delta-type opioid receptor (Homo sapiens, UniProt P41143); test: Late-stage results from the probe development effort to identify antagonists of OPRK1: fluorescence-based cell-based dose response OPRD1 counterscreen, Set 2.; assay type: functional
[13] = target: Kappa-type opioid receptor (Homo sapiens, UniProt P41145); test: Late-stage fluorescence-based cell-based dose response assay for antagonists of kappa opioid receptor 1 (OPRK1).; assay type: functional
[14] = HEK-293T viability loss after treatment – luminescence, T-cell screen hits, cytotoxicity control for TCR NF-kB inhibitor project, dose response (AID 489026); assay type: functional, cell-based;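 also: cells exposed to compound about 14 hours before the viability readout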
[15] = luciferase reporter signal suppression in cells – H4 neuroglioma cells, luminescence, dose response (AID 1990); assay type: functional, cell-based
[16] = alpha-synuclein stem-loop luciferase translation blockers – H4 neuroglioma cells, luminescence, confirmation (AID 1988); assay type: functional, cell-based
[17] = Luminescence Cell-Based Dose Response HTS to Identify Inhibitors of 5'UTR Stem-Loop Driven Prion Protein mRNA Translation in H4 Neuroglioblastoma Cells. [Related pubchem assays: 1827 (Project Summary), 1813 (Primary HTS)]; assay type: functional
[18] = viability loss in HepG2 liver cells – cell-based, ATP luminescence, cherry-pick, set 6, cytotoxicity control, dose response (AID 1053125); assay type: functional
[19] = toxicity toward HEK293 cells – cell-based, dry powder samples, cytotoxicity control, dose response (AID 720567); assay type: functional
[20] = target: NAD-dependent protein deacylase sirtuin-5, mitochondrial (Homo sapiens, UniProt Q9NXA8); test: sirtuin-5 deacylation blockers, concentration series – biochemical, fluorescence imaging, cherry-pick, set 5, dose response (AID 720591);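 also: desuccinylation of succinyl peptide AMC substrate read as fluorescence after trypsin release; potency of inhibitors that lower fluorescence and may act on trypsin instead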
[21] = inhibition of ADAM10 peptide cleavage – biochemical, FRET peptide substrate, recombinant human ADAM10, selectivity assay for ADAM17 exosite inhibitor project, dose response (AID 743259);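 also: ADAM10 enzyme cleaving a FRET peptide substrate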
[22] = target: T2, Disintegrin and metalloproteinase domain-containing protein 17; test: exosite inhibitors of ADAM17, dose response, biochemical (AID 743260)

Question: For `CC(C)(C)c1ccc(-c2cc(-c3ccccc3O)n[nH]2)cc1`, which EC50 [1] is on record?
Answer: 1.81 µM (active)

Question: And the IC50 [2]?
Answer: 47.8 µM (inactive)

Question: And the IC50 [3]?
Answer: > 69.6 µM (inactive)

Question: For `NC(=O)c1cc(N)ccc1N1CCCC1`, which IC50 [4] is on record?
Answer: 12.9 µM (active)

Question: What about the AC50 [5] of the same compound?
Answer: 4.01 µM (active)

Question: And the IC50 [6]?
Answer: 18.1 µM (active)

Question: And the IC50 [7]?
Answer: > 100 µM (inactive)

Question: Which IC50 [8] does the source give for `Cc1onc(-c2c(F)cccc2Cl)c1C(=O)Nc1nnc(C(F)(F)F)s1` here?
Answer: 2.79 µM (active)

Question: And the IC50 [9]?
Answer: > 138 µM (inactive)

Question: Which IC50 [10] does the source give for `CN(C)c1cc(NC(=O)Nc2ccccc2)c2ccccc2n1` here?
Answer: > 50 µM (inactive)

Question: What about the IC50 [11] of the same compound?
Answer: 40 µM (inactive)

Question: And the IC50 [12]?
Answer: 69.5 µM (inactive)

Question: What about the IC50 [13] of the same compound?
Answer: 32.6 µM (inactive)

Question: For `Cc1ccc(NC(=O)Nc2ccnc(-c3cccnc3)n2)cc1`, which IC50 [14] is on record?
Answer: 27.8 µM (inactive)

Question: And the EC50 [15]?
Answer: 0.983 µM (active)

Question: What about the EC50 [16] of the same compound?
Answer: 0.87 µM (active)

Question: And the EC50 [17]?
Answer: > 120 µM (not active)

Question: And the AC50 [18]?
Answer: > 52 µM (inactive)

Question: For `Cc1cccc(C)c1OCCNC(=O)C(=O)NCc1ccco1`, which AC50 [19] is on record?
Answer: > 30 µM (inactive)

Question: Which EC50 [1] does the source give for `O=C(Cn1nc(-c2ccc(Cl)cc2)ccc1=O)NCC1CCCO1` (stereo not drawn) here?
Answer: > 195 µM (not active)

Question: And the AC50 [20]?
Answer: > 30 µM (inactive)

Question: With `C[C@H](CO)N1C[C@H](C)[C@H](CN(C)S(=O)(=O)c2cccs2)Oc2ccc(NC(=O)Nc3ccc4c(c3)OCO4)cc2CC1=O` as the compound, how does the IC50 [21] read?
Answer: 13.8 µM (inactive)

Question: What about the IC50 [22] of the same compound?
Answer: > 69.5 µM (inactive)
